Like-named read-outs stand apart in the source and are kept apart here.

In assay [1] the target is human RORγt ligand binding domain (RORγt LBD) (Homo sapiens (Human), UniProt P51449). Kind of assay: RORγt ThermoFluor® assay (thermal shift binding). In outline:
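Binding was inferred from thermal stabilisation (ΔTm) of the E. coli-expressed RORγt LBD (0.065 mg/mL), monitored by 1,8-ANS (60 μM) emission at 500 nm during a 1 °C/min ramp. Buffer was Hepes 100 mM pH 7.0 with NaCl, GSH and Tween-20.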

The next assay addresses full-length human RORγt (Homo sapiens (Human), UniProt P51449). Kind of assay: RORγt (full-length human) reporter assay, Conditions B or C. In kind it is cell-based. Conditions: for inhibition at 3 µM: at 3 μM compound concentration; for RORγt (FL) Reporter Assay B or C, % inhibition (value marked *): marked *: footnote not given. In outline:
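Readout is dual luciferase: firefly (GAL4-driven) normalized to DMSO-only and saturating-reference controls, then to CMV-Renilla. Full-length human RORγt fused to GAL4-DBD was transiently expressed in HEK293T; compound exposure ran overnight (16-20 h) starting 4-6 h after transfection, final FBS 1.3%, DMSO 0.1%.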

[2] abbreviates: read-out: ThermoFluor® Assay, Kd.
Where [3] appears, read: read-out: RORγt (FL) Reporter Assay B or C, % inhibition.
The mark [4] stands for this setting: read-out: RORγt (FL) Reporter Assay B or C, IC50.
The mark [5] stands for this setting: Conditions B or C, read-out: RORγt (FL) Reporter Assay B or C, IC50.

Chain of human RORγt ligand binding domain (RORγt LBD) (P51449 other isoform, or with tags, fused parts or gaps): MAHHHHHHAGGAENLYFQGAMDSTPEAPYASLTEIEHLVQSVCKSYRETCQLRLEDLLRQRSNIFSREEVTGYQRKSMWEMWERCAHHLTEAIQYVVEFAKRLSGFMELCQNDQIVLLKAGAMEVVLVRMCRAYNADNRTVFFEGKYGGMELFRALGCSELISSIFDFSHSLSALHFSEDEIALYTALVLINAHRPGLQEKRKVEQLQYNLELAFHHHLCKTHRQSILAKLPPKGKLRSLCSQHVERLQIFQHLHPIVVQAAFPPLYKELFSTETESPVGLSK
Chain of full-length human RORγt (P51449 other isoform, or with tags, fused parts or gaps): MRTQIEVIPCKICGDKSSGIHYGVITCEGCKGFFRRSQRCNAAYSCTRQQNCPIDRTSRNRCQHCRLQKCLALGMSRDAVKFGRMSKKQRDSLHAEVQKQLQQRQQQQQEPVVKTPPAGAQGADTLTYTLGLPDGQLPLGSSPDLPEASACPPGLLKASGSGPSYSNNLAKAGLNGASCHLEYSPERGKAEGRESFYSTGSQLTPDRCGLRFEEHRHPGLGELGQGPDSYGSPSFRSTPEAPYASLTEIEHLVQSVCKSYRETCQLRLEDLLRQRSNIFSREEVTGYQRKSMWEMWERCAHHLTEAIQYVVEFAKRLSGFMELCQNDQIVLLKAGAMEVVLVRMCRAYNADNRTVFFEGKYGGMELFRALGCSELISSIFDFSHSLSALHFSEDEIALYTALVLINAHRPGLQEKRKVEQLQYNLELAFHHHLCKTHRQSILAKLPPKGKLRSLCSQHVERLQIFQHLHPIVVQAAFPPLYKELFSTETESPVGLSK

For `C[C@H](NC(=O)c1nc(C(=O)N2CCC[C@@H]2C)c(-c2cnc(NC3(C)CCC3)cc2C(F)F)s1)C(C)(C)O` [Example 322, 5-(4-(Difluoromethyl)-6-((1-methylcyclobutyl)amino)pyridin-3-yl)-N—((S)-3-hydroxy-3-methylbutan-2-yl)-4-((S)-2-methylpyrrolidine-1-carbonyl)thiazole-2-carboxamide], the Kd in assay [1] (setting [2]) worked out at 0.0018 µM. On full-length human RORγt (setting [3]), the inhibition at 3 µM is 106%. The IC50 on full-length human RORγt (setting [4]) was 0.049 µM.
As to `CC[C@H](Nc1cc(C(F)(F)F)c(-c2sc(C(=O)NCC(C)(C)O)nc2C(=O)N2C3CCC2CC3)cn1)C1CC1` (stereo in doubt) [Example 130], in assay [1] (ThermoFluor® Assay, Kd (μM)), the Kd was 0.0016 µM. The “RORγt (FL) Reporter Assay B or C, % inhibition (value marked ***)” value at full-length human RORγt (Conditions B or C, marked ***: footnote not given) is 98*** %. The compound further showed an IC50 against full-length human RORγt (RORγt (FL) Reporter Assay B or C, IC50 (μM), Conditions B or C) of 0.03 µM.
Regarding `C[C@@H](Nc1cc(C(F)(F)F)c(-c2sc(C(=O)NCC(C)(C)O)nc2C(=O)N2C3CCC2CC3)cn1)C1CCC1` (stereo in doubt) [Example 172, 4-((1s,4s)-7-Azabicyclo[2.2[1]heptane-7-carbonyl)-5-(6-(((R*)-1-cyclobutylethyl)amino)-4-(trifluoromethyl)pyridine-3-yl)-N-(2-hydroxy-2-methylpropyl)thiazole-2-carboxamide], the Kd in assay [1] (setting [2]) came to 0.0012 µM. In addition, on full-length human RORγt (Conditions B or C), the “RORγt (FL) Reporter Assay B or C, % inhibition (value marked *)” value (from here on “RORγt … % inhibition (value marked *)”) is 102* %. Further, on full-length human RORγt (setting [5]), the IC50 came to 0.039 µM.
`C[C@H]1CCCN1C(=O)c1nc(C(=O)N2CC(CO)C2)sc1-c1cnc(NC(C)(C)C)cc1C(F)(F)F` [Example 249, [5-[6-(tert-Butylamino)-4-(trifluoromethyl)-3-pyridyl]-2-[3-(hydroxymethyl)azetidine-1-carbonyl]thiazol-4-yl]-[(2S)-2-methylpyrrolidin-1-yl]methanone]: the Kd in assay [1] (setting [2]) amounted to 0.0081 µM. Also, at full-length human RORγt (setting [3]), the inhibition at 3 µM was found to be 103%. In addition, the IC50 on full-length human RORγt (setting [4]) was 0.024 µM.
For the compound `C[C@H](Nc1cc(C(F)F)c(-c2sc(C(=O)NCC(C)(C)O)nc2C(=O)N2C3CCC2CC3)cn1)C(F)(F)F` [Example 136], the Kd in assay [1] (setting [2]) was 0.016 µM. For the same compound, at full-length human RORγt (Conditions B or C), the “RORγt … % inhibition (value marked *)” value is recorded as 109* %. In addition, the IC50 on full-length human RORγt (setting [5]) was 0.79 µM.
As to `CC1(Nc2cc(C(F)F)c(-c3sc(C(=O)N[C@H]4C[C@H](O)C4)nc3C(=O)N3C4CCC3CC4)cn2)CCC1` [Example 330, 4-((1s,4s)-7-Azabicyclo[2.2.1]heptane-7-carbonyl)-5-(4-(difluoromethyl)-6-((1-methylcyclobutyl)amino)pyridin-3-yl)-N-((1r,3R)-3-hydroxycyclobutyl)thiazole-2-carboxamide], in assay [1] (setting [2]), the Kd was determined as 0.0042 µM. Moreover, the inhibition at 3 µM at full-length human RORγt (setting [3]) worked out at 93%. On full-length human RORγt (setting [4]), the IC50 is 0.016 µM.
In the case of `C[C@H]1CCCN1C(=O)c1nc(C(=O)NCC(C)(C)O)sc1-c1cnc(NC2(C(F)(F)F)CCC2)cc1C(F)(F)F` [Example 104, (S)—N-(2-Hydroxy-2-methylpropyl)-4-(2-methylpyrrolidine-1-carbonyl)-5-(4-(trifluoromethyl)-6-((1-(trifluoromethyl)cyclobutyl)amino)pyridin-3-yl)thiazole-2-carboxamide], the Kd in assay [1] (setting [2]) is 0.00064 µM. For the same compound, the “RORγt … % inhibition (value marked *)” value at full-length human RORγt (Conditions B or C) is recorded as 110* %. Also, the IC50 at full-length human RORγt (setting [5]) amounted to 0.025 µM.
Consider `C[C@H]1CCCN1C(=O)c1nc(C(=O)NC2(CO)CC2)sc1-c1cnc(NC(C)(C)C)cc1C(F)(F)F` [Example 263, 5-[6-(tert-Butylamino)-4-(trifluoromethyl)-3-pyridyl]-N-[1-(hydroxymethyl)cyclopropyl]-4-[(2S)-2-methylpyrrolidine-1-carbonyl]thiazole-2-carboxamide], for which the Kd in assay [1] (setting [2]) came out at 0.0011 µM. At full-length human RORγt (setting [3]), the inhibition at 3 µM amounted to 107%. The IC50 on full-length human RORγt (setting [4]) turned out to be 0.0066 µM.
Turning to `C[C@H]1CC(F)(F)CN1C(=O)c1nc(C(=O)NCC(C)(C)O)sc1-c1cnc(NC(C)(C)C)cc1C(F)F` [Example 143, (S)-5-(6-(tert-Butylamino)-4-(difluoromethyl)pyridin-3-yl)-4-(4,4-difluoro-2-methylpyrrolidine-1-carbonyl)-N-(2-hydroxy-2-methylpropyl)thiazole-2-carboxamide], in assay [1] (setting [2]), the Kd is 0.0023 µM. The “RORγt … % inhibition (value marked *)” value on full-length human RORγt (Conditions B or C) is 114* %. The IC50 at full-length human RORγt (setting [5]) was 0.039 µM.
For `C[C@H](Nc1cc(C(F)F)c(-c2sc(C(=O)N[C@@H]3C[C@H]3O)nc2C(=O)N2CCC[C@@H]2C)cn1)C(F)(F)F` (single isomer, unassigned) [Example 157, 5-(4-(Difluoromethyl)-6-(((S)-1,1,1-trifluoropropan-2-yl)amino)pyridin-3-yl)-N-((1R*,2R*)-2-hydroxycyclopropyl)-4-((S)-2-methylpyrrolidine-1-carbonyl)thiazole-2-carboxamide] the same measures were 0.032 µM, 89* % and 0.19 µM.
Consider `C[C@H](CO)NC(=O)c1nc(C(=O)N2C3CCC2CC3)c(-c2cnc(NC(C)(C)C)cc2C(F)F)s1` [Example 427, 4-((1s,4s)-7-Azabicyclo[2.2.1]heptane-7-carbonyl)-5-[6-(tert-butylamino)-4-(difluoromethyl)-3-pyridyl]-N-[(1R)-2-hydroxy-1-methyl-ethyl]thiazole-2-carboxamide], for which the Kd in assay [1] (setting [2]) was 0.003 µM. This compound also had a half-maximal inhibitory concentration (IC50) against full-length human RORγt (RORγt (FL) Reporter Assay B or C, IC50) of 0.003 µM. For the same compound, the inhibition at 3 µM on full-length human RORγt (setting [3]) was 113%.
Regarding `CC[C@H](Nc1cc(C(F)F)c(-c2sc(C(=O)N3CC4(COC4)C3)nc2C(=O)N2CCC[C@@H]2C)cn1)C(F)(F)F` [Example 384, [5-[4-(Difluoromethyl)-6-[[(1S)-1-(trifluoromethyl)propyl]amino]-3-pyridyl]-2-(6-oxa-2-azaspiro[3.3]heptane-2-carbonyl)thiazol-4-yl]-[(2S)-2-methylpyrrolidin-1-yl]methanone], in assay [1] (setting [2]), the Kd turned out to be 0.005 µM. The inhibition at 3 µM at full-length human RORγt (setting [3]) is 98%. At full-length human RORγt (setting [4]), the IC50 came out at 0.07 µM.
As for `C[C@H](NC(=O)c1nc(C(=O)N2CCC[C@@H]2C)c(-c2cnc(NCC(C)(C)C)cc2C(F)F)s1)C(C)(C)O` [Example 344, 5-[4-(Difluoromethyl)-6-(2,2-dimethylpropylamino)-3-pyridyl]-N-[(1S)-2-hydroxy-1,2-dimethyl-propyl]-4-[(2S)-2-methylpyrrolidine-1-carbonyl]thiazole-2-carboxamide], the Kd in assay [1] (setting [2]) worked out at 0.0032 µM. Besides, the inhibition at 0.33 µM at full-length human RORγt (at 0.33 μM compound concentration, read-out: RORγt (FL) Reporter Assay B or C, % inhibition) was 53%. Also, the IC50 on full-length human RORγt (setting [4]) came to 0.0053 µM.
For the compound `C[C@H]1CCCN1C(=O)c1nc(C(=O)NC(C)(C)CO)sc1-c1cnc(NC(C)(C)C)cc1C(F)(F)F` [Example 339, 5-[6-(tert-Butylamino)-4-(trifluoromethyl)-3-pyridyl]-N-(2-hydroxy-1,1-dimethyl-ethyl)-4-[(2S)-2-methylpyrrolidine-1-carbonyl]thiazole-2-carboxamide], in assay [1] (setting [2]), the Kd was determined as 0.00097 µM. In addition, on full-length human RORγt (setting [3]), the inhibition at 3 µM was found to be 109%. Also, the IC50 on full-length human RORγt (setting [4]) was determined as 0.0029 µM.
In the case of `CC(C)(O)CNC(=O)c1nc(C(=O)N2C3CCC2CC3)c(-c2cnc(NC(C3CC3)C3CC3)cc2C(F)F)s1` [Example 178, 4-((1s,4s)-7-Azabicyclo[2.2.1]heptane-7-carbonyl)-5-(6-((dicyclopropylmethyl)amino)-4-(difluoromethyl)pyridine-3-yl)-N-(2-hydroxy-2-methylpropyl)thiazole-2-carboxamide], the Kd in assay [1] (setting [2]) stood at 0.002 µM. Besides, the “RORγt … % inhibition (value marked *)” value on full-length human RORγt (Conditions B or C) is 102* %. Moreover, the IC50 on full-length human RORγt (setting [5]) stood at 0.0055 µM.

The record behind these values is patent US10975068B2, “6-aminopyridin-3-yl thiazoles as modulators of RORγT” (Janssen Pharmaceutica NV, priority 2016, dated 2021).
